The values that follow come from patent publication US6548506B2, “Benzo[1,8]naphthyridine derivatives, their preparation and pharmaceutical compositions which comprise them” (Aventis Pharma S.A., priority 1998, dated 2003).

Holding throughout (format): in vivo
Series [1] concerns Staphylococcus aureus ATCC 25923. In words: Model of infection of the guinea-pig with Staphylococcus aureus ATCC 25923. Particulars: about 2% in a cetomacrogol and benzyl alcohol formulation; guinea-pig infected with S. aureus ATCC 25923.
Series [2] is described as follows: 2-week topical application to nasal mucous membrane of rabbit, toxicity. Particulars: 2 weeks topical application b.i.d., composition at about 2%.
In series [3] the test system is Staphylococcus aureus AS 5155. In words: Model of experimental infection of the guinea pig with Staphylococcus aureus AS 5155. Particulars: about 2%; guinea pig infected with S. aureus AS 5155, resistant to meticillin, MLSB and quinolones.
Series [4] is described as follows: 2-week topical application toxicity in rat. Particulars: 2 weeks topical application b.i.d., composition at about 2, about 5 and about 10%.

Consider `Cn1cc(C(=O)O)c(=O)c2cc3cc(F)c(N4CCN(c5ccc(F)cc5)CC4)cc3nc21` [Example 1, 7-Fluoro-8-[4-(4-fluorophenyl)piperazin-1-yl]-1-methyl-4-oxo-1,4-dihydrobenzo[b][1,8]-naphthyridine-3-carboxylic Acid], for which the in vivo activity entry in series [1] and in series [3] was “active” in each case. For the same compound, the toxic effect result in series [2] and in series [4] was “no toxic effect was observed” throughout.
